These results are taken from ChEMBL document CHEMBL3779788, “Facile synthesis of 1,3-thiazolidin-4-ones as antitubercular agents” (Bioorg Med Chem Lett, 2016).

Series [1] is described as follows: Cytotoxicity against human MCF7 cells at 3 ug/mL by MTT assay. The format is cell-based. As to conditions: read-out: INH.
Series [2] concerns Mycobacterium tuberculosis. In words: Antitubercular activity against dormant Mycobacterium tuberculosis H37Ra by XTT reduction menadione assay. In kind it is functional, organism-based. (Tetrazolium assays rely on reduction of a dye to a coloured formazan, in cell work by metabolically active cells.)
In series [3] the test system is Mycobacterium bovis BCG str. ATCC 35743. The series is described as follows: Antitubercular activity against dormant Mycobacterium bovis BCG ATCC 35743 assessed as growth inhibition at 3 ug/mL by NR assay. The format is functional.
Series [4] in a line: Cytotoxicity against human MCF7 cells at 10 ug/mL by MTT assay. In kind it is cell-based. The following applies: read-out: INH.
In series [5] the test system is Mycobacterium bovis BCG str. ATCC 35743. The series is described as follows: Antitubercular activity against dormant Mycobacterium bovis BCG ATCC 35743 assessed as growth inhibition at 30 ug/mL by NR assay. In kind it is functional.
Series [6] has the same test system. In words: Antitubercular activity against dormant Mycobacterium bovis BCG ATCC 35743 assessed as growth inhibition at 10 ug/mL by NR assay. In kind it is functional.
Series [7] in a line: Cytotoxicity against human A549 cells at 3 ug/mL by MTT assay. The format is cell-based. As to conditions: read-out: INH.
The subject of series [8] is Mycobacterium tuberculosis. In words: Antitubercular activity against dormant Mycobacterium tuberculosis H37Ra assessed as growth inhibition at 3 ug/mL by XTT reduction menadione assay. In kind it is functional. As to conditions: read-out: GI.
The subject of series [9] is Mycobacterium tuberculosis. The series is described as follows: Antitubercular activity against dormant Mycobacterium tuberculosis H37Ra assessed as growth inhibition at 30 ug/mL by XTT reduction menadione assay. The format is functional. The following applies: read-out: GI.
Series [10] relates to Mycobacterium tuberculosis. In words: Antitubercular activity against dormant Mycobacterium tuberculosis H37Ra assessed as growth inhibition at 10 ug/mL by XTT reduction menadione assay. As to conditions: read-out: GI. The format is functional.
A short description of series [11]: Cytotoxicity against human MCF7 cells at 30 ug/mL by MTT assay. In kind it is cell-based. The following applies: read-out: INH.
Series [12] in a line: Cytotoxicity against human A549 cells at 10 ug/mL by MTT assay. The format is cell-based. As to conditions: read-out: INH.
A short description of series [13]: Cytotoxicity against human A549 cells at 30 ug/mL by MTT assay. In kind it is cell-based. As to conditions: read-out: INH.
A short description of series [14]: Cytotoxicity against human HCT116 cells at 10 ug/mL by MTT assay. In kind it is cell-based, HCT-116. As to conditions: read-out: INH.
The nature of series [15]: Cytotoxicity against human HCT116 cells at 30 ug/mL by MTT assay. In kind it is cell-based, HCT-116. The following applies: read-out: INH.
Series [16] is described as follows: Cytotoxicity against human HCT116 cells at 3 ug/mL by MTT assay. The format is cell-based, HCT-116. As to conditions: read-out: INH.
The subject of series [17] is Mycobacterium bovis BCG str. ATCC 35743. In words: (§1) Antitubercular activity against dormant Mycobacterium bovis BCG ATCC 35743 by NR assay. The format is functional.
Series [18] in a line: as §1. The format is functional, Mycobacterium bovis BCG str. ATCC 35743.
For series [19], the system named is Pseudomonas. The series is described as follows: Antibacterial activity against Pseudomonas after 18 hrs by broth dilution method. The format is functional, organism-based. On the technique in general: Broth dilution looks for growth in wells or tubes with falling amounts of substance.
The subject of series [20] is Escherichia coli. In words: Antibacterial activity against Escherichia coli after 18 hrs by broth dilution method. The format is functional, organism-based.
For series [21], the system named is Bacillus subtilis. The series is described as follows: Antibacterial activity against Bacillus subtilis after 18 hrs by broth dilution method. The format is functional, organism-based.
Series [22] deals with Staphylococcus aureus. In words: Antibacterial activity against Staphylococcus aureus after 18 hrs by broth dilution method. In kind it is functional, organism-based.

SMILES strings stand for the structures. ≈ marks a conversion by molar mass, not a printed value. Where only a bound is given, the exact number is not on record here.

The term IC50 denotes the concentration at which inhibition is half-maximal. A higher IC50 goes with a need for much substance. By IC90 is commonly meant the concentration needed for an effect of 90%. A high value points to a need for much substance. As to `Cc1ccc(N2C(=O)CSC2c2ccccc2)cc1` (stereo unspecified), the cytotoxicity at 3 ug/mL is -40.6% in [1], 0% in series [7] and 16.1% in series [16]. Moreover, the IC50 in series [2] and in series [18] was greater than 30 µg/mL in each case. Besides, the IC90 in [2] and in series [17] was greater than 30 µg/mL throughout. The growth inhibition (GI) stood at 61.6% in [3], 39.7% in [5] and 4.5% in series [6]. Further, the figures for the cytotoxicity at 10 ug/mL in [4], in [12] and in series [14] were 8.4%, 0% and 20.5%, respectively. In series [8], the inhibition of growth at 3 µg/mL was -21.6%. Further, the inhibition of growth at 30 µg/mL in series [9] was -0.7%. The inhibition of growth at 10 µg/mL in [10] was -24.3%. Besides, the values for the cytotoxicity at 30 ug/mL in series [11], in [13] and in [15] were 29.2%, -15.9% and 21.6%, respectively.
As for `O=C1CSC(c2ccc(O)cc2)N1c1ccc(Cl)cc1` (stereo unspecified), the figures for the cytotoxicity at 3 ug/mL in [1], in [7] and in series [16] were 24.9%, 0% and 4.3%, respectively. In addition, the IC50 in series [2] and in series [18] was greater than 30 µg/mL each time. Also, the 90% effect concentration (IC90) in series [2] and in [17] was greater than 30 µg/mL each time. For the same compound, the growth inhibition (GI) in series [3] is 6%; in [5] it was -2.2%; in series [6] it was -15.5%. Further, the cytotoxicity at 10 ug/mL is 32.2% in series [4], 0% in [12] and 10.4% in series [14]. Moreover, in series [8], the inhibition of growth at 3 µg/mL turned out to be 29.8%. Also, the inhibition of growth at 30 µg/mL in [9] was found to be 16.3%. The inhibition of growth at 10 µg/mL in series [10] turned out to be 10.3%. The values for the cytotoxicity at 30 ug/mL in series [11], in [13] and in series [15] were 43.4%, 0% and 20.1%, respectively.
Take `O=C1CSC(c2ccccc2)N1c1ccc(Br)cc1` (stereo unspecified): the cytotoxicity at 3 ug/mL in [1] was -2.6%; in series [7], 0%; in series [16] it was -7.3%. The IC50 in series [2] and in series [18] was greater than 30 µg/mL throughout. The 90% effect concentration (IC90) in series [2] and in series [17] was greater than 30 µg/mL in each case. Besides, the results for the growth inhibition (GI) in series [3], in series [5] and in [6] were -14%, -35.7% and -2.7%, respectively. In addition, the cytotoxicity at 10 ug/mL in series [4] amounted to 9.4%; in [12], 0%; in series [14], 8.2%. For the same compound, in series [8], the inhibition of growth at 3 µg/mL was -6.9%. In addition, the inhibition of growth at 30 µg/mL in series [9] is -0.7%. In series [10], the inhibition of growth at 10 µg/mL is -27.5%. The values for the cytotoxicity at 30 ug/mL in series [11], in [13] and in [15] were 23.8%, 0% and 22%, respectively.
Take `CO[C@H]1/C=C/O[C@@]2(C)Oc3c(C)c(O)c4c(O)c(c(/C=N/N5CCN(C)CC5)c(O)c4c3C2=O)NC(=O)/C(C)=C\C=C\[C@H](C)[C@H](O)[C@@H](C)[C@@H](O)[C@@H](C)[C@H](OC(C)=O)[C@@H]1C` [RIFAMPIN]: the IC90 was 0.043 µg/mL (≈ 0.0523 µM) in series [2] and 0.041 µg/mL (≈ 0.0498 µM) in series [17]. This compound also returned an IC50 in series [18] of 0.0016 µg/mL (≈ 0.00194 µM).
Take `Cc1ccc(N2C(=O)CSC2c2ccc(Cl)cc2)cc1` (stereo unspecified): the cytotoxicity at 3 ug/mL in series [1] was -0.9%; in series [7], 1.3%; in [16], -8.6%. In addition, the IC50 in [2] and in series [18] was greater than 30 µg/mL each time. Moreover, the IC90 in series [2] and in [17] was greater than 30 µg/mL in each case. In addition, the growth inhibition (GI) in series [3] was -6.6%; in [5] it was 5.3%; in [6] it was 29.2%. For the same compound, the cytotoxicity at 10 ug/mL in series [4] came out at 9.6%; in [12] it was 0%; in [14], 7.2%. For the same compound, the inhibition of growth at 3 µg/mL in series [8] came out at 34%. Besides, in [9], the inhibition of growth at 30 µg/mL amounted to 5.2%. Moreover, the inhibition of growth at 10 µg/mL in series [10] amounted to 38.1%. Also, the cytotoxicity at 30 ug/mL in [11] worked out at 11.3%; in series [13], 0%; in series [15], 28.8%.
For `O=C1CSC(c2ccc(F)cc2)N1c1ccc(Cl)cc1` (stereo unspecified), the values for the cytotoxicity at 3 ug/mL in series [1], in series [7] and in series [16] were 32.2%, -7% and 9.4%, respectively. The IC50 in series [2] and in [18] was greater than 30 µg/mL each time. In addition, the IC90 in series [2] and in [17] was greater than 30 µg/mL each time. Besides, the values for the growth inhibition (GI) in series [3], in series [5] and in [6] were -3.2%, -1.3% and -3.8%, respectively. The cytotoxicity at 10 ug/mL in [4] came out at 38.1%; in [12], 0%; in series [14] it was 18.6%. Moreover, in [8], the inhibition of growth at 3 µg/mL came out at 8.8%. Further, the inhibition of growth at 30 µg/mL in [9] came out at 30.2%. In [10], the inhibition of growth at 10 µg/mL was -14.6%. Further, the cytotoxicity at 30 ug/mL stood at 43.7% in [11], 4.9% in series [13] and 50.4% in [15].
Broadly, the MIC is the lowest concentration that inhibits growth of the organism. A low value points to a more susceptible organism. For the compound `NC[C@H]1O[C@H](O[C@H]2[C@H](O)[C@@H](O[C@H]3O[C@H](CO)[C@@H](O)[C@H](N)[C@H]3O)[C@H](N)C[C@@H]2N)[C@H](O)[C@@H](O)[C@@H]1O` [KANAMYCIN], the IC50 in series [19] was 0.49 µg/mL (≈ 1.01 µM); in series [20] it was 1.62 µg/mL (≈ 3.34 µM); in series [21] it was 1.35 µg/mL (≈ 2.79 µM); in series [22] it was greater than 30 µg/mL. Further, the minimum inhibitory concentration (MIC) in series [19] was 0.012 µg/mL (≈ 0.0248 µM); in [20], 0.67 µg/mL (≈ 1.38 µM); in [21], 0.25 µg/mL (≈ 0.516 µM); in series [22], 16 µg/mL (≈ 33 µM).
Consider `CC1(C)S[C@@H]2[C@H](NC(=O)[C@H](N)c3ccccc3)C(=O)N2[C@H]1C(=O)O` [AMPICILLIN], for which the IC50 in series [19] came to 4.36 µg/mL (≈ 12.5 µM); in [20], 1.46 µg/mL (≈ 4.18 µM); in series [21], 10.3 µg/mL (≈ 29.5 µM); in series [22] it was 1 µg/mL (≈ 2.86 µM). In addition, the MIC in series [19] is 2.83 µg/mL (≈ 8.1 µM); in [20], 0.41 µg/mL (≈ 1.17 µM); in [21], 5.89 µg/mL (≈ 16.9 µM); in series [22], 0.12 µg/mL (≈ 0.343 µM).
As for `O=C1CSC(c2ccc(Cl)cc2)N1c1ccc(F)cc1` (stereo unspecified), the cytotoxicity at 3 ug/mL is 12.4% in series [1], 0% in series [7] and -6.2% in series [16]. Moreover, the IC50 in series [2] and in [18] was greater than 30 µg/mL in each case. For the same compound, the IC90 in series [2] and in series [17] was greater than 30 µg/mL each time. In addition, the growth inhibition (GI) in series [3] was -2.1%; in series [5], -1%; in series [6] it was -9.9%. In addition, the cytotoxicity at 10 ug/mL in series [4] is 11.5%; in series [12], 0%; in series [14], 0.2%. Further, the inhibition of growth at 3 µg/mL in [8] came out at 8.8%. Further, in series [9], the inhibition of growth at 30 µg/mL was -45.6%. In series [10], the inhibition of growth at 10 µg/mL is -3.2%. Besides, the cytotoxicity at 30 ug/mL amounted to 26.1% in series [11], 0% in [13] and 34.5% in [15].
For `NNC(=O)c1ccncc1` [ISONIAZID], the IC90 came to 0.075 µg/mL (≈ 0.547 µM) in [2] and 0.045 µg/mL (≈ 0.328 µM) in series [17]. This compound registered an IC50 in series [18] of 0.0023 µg/mL (≈ 0.0168 µM).
